Values belong to the compound of their own block, whether it stands above or below them.
How the values were obtained:
A2780-parental = test: Alamar Blue cell viability assay; format: cell-based; conditions: 72 h
A2780-ADR (PGP) = test: Alamar Blue cell viability assay; conditions: for IC50: A2780 ADR, 72 h; for RF: IC50 A2780-ADR (PGP) / IC50 A2780-parental
[1] = test system: MCF-7 breast cancer cell line; test: Antiproliferation study, MTT cell viability assay; format: cell-based; conditions: Homo sapiens, MCF7, 72 h, antiproliferative activity, MTT, 72 h; read-out: IC50 (μM) MCF-7 cell line
Description: All assays were performed in triplicate for the determination of mean values reported. Compounds were assayed as the free bases isolated from reaction. The human breast tumour cell line MCF-7 was cultured in Eagles minimum essential medium in a […] atmosphere with 10% fetal bovine serum, 2 mM L-glutamine and 100 μg/mL penicillin/streptomycin. The medium was supplemented with 1% non-essential amino acids. MDA-MB-231 cells were maintained in Dulbecco's Modified Eagle's medium (DMEM), supplemented with 10% (v/v) Fetal bovine serum, 2 mM L-glutamine and 100 μg/mL penicillin/streptomycin (complete medium). Cells were trypsinised and seeded at a density of 2.5×10^4 cells/ml in a 96-well plate and incubated at 37° C., […] atmosphere for 24 h. […] Control wells contained the equivalent volume of the vehicle ethanol (1% v/v). The culture medium was then removed and the cells washed with 100 μL phosphate buffered saline (PBS) and 50 μL MTT added, to reach a final concentration of 1 mg/mL MTT added. Cells were incubated for 2 h in darkness at 37° C. At this point solubilization was begun through the addition of 200 μL DMSO and the cells maintained at room temperature in darkness for 20 min to ensure thorough colour diffusion before reading the absorbance. The absorbance value of control cells (no added compound) was set to 100% cell viability and from this graphs of absorbance versus cell density per well were prepared to assess cell viability and from these, graphs of percentage cell viability versus concentration of subject compound added were drawn.

[2] = Stability by HPLC at three pH values; format: physicochemical
Description: The stability of β-lactam compounds 4, 8 and 12 was assessed by HPLC at three different pH values. […] The half-lives of 8 and 12 were both greater than 24 hours at all pH values. The stability of three ester prodrug derivatives of 4, i.e. 29, 30 and 31, was also assessed (FIG. 6).

HL-60 parental = test: Alamar Blue cell viability assay; format: cell-based; conditions: Homo sapiens, 72 h
HL-60-MDR(PGP) = test: Alamar Blue cell viability assay; format: cell-based, human; conditions: for IC50: Homo sapiens, HL60/MDR, HL-60-MDR(PGP), 72 h, Alamar blue, read-out: IC50; for RF: IC50 HL-60-MDR(PGP) / IC50 HL-60 parental

- IC50 (A2780-ADR (PGP)): 5.1 µM
SMILES: COc1cccc2c1C(=O)c1c(O)c3c(c(O)c1C2=O)C[C@@](O)(C(=O)CO)C[C@@H]3O[C@H]1C[C@H](N)[C@H](O)[C@H](C)O1 [Adriamycin, adriamycin]
- IC50 (A2780-parental): 0.0428 µM
- RF (A2780-ADR (PGP)): 119.2

SMILES: C=C(C)C1C(=O)N(c2cc(OC)c(OC)c(OC)c2)C1c1ccc(OC)c(O)c1 (centres unmarked) [Compound 3, 4-(3-Hydroxy-4-methoxy-phenyl)-3-isopropenyl-1-(3,4,5-trimethoxy-phenyl)-azetidin-2-one]
- IC50 [1]: 0.019 µM

SMILES: COc1ccc(C2C(C(C)O)C(=O)N2c2cc(OC)c(OC)c(OC)c2)cc1O (centres unmarked) [Compound 6, 3-(1-Hydroxy-ethyl)-4-(3-hydroxy-4-methoxy-phenyl)-1-(3,4,5-trimethoxy-phenyl)-azetidin-2-one]
- IC50 [1]: 0.0376 µM

- IC50 [1]: 0.0468 µM
SMILES: COc1ccc(C2C(C(O)C=Cc3ccccc3)C(=O)N2c2cc(OC)c(OC)c(OC)c2)cc1O (centres unmarked) [Compound 7, 4-(3-Hydroxy-4-methoxy-phenyl)-3-(1-hydroxy-3-phenyl-allyl)-1-(3,4,5-trimethoxy-phenyl)-azetidin-2-one]

- IC50 [1]: 0.05 µM
SMILES: COc1ccc(C2C(c3ccc(N)cc3)C(=O)N2c2cc(OC)c(OC)c(OC)c2)cc1 (centres unmarked) [Compound 9, 3-(4-Amino-phenyl)-4-(4-methoxy-phenyl)-1-(3,4,5-trimethoxyphenyl)-azetidin-2-one]

SMILES: COc1ccc(C2C(c3ccc(O)cc3)C(=O)N2c2cc(OC)c(OC)c(OC)c2)cc1 (centres unmarked) [Compound 10, 3-(4-Hydroxy-phenyl)-4-(4-methoxy-phenyl)-1-(3,4,5-trimethoxy-phenyl)-azetidin-2-one]
- melting point: 155 °C
- IC50 [1]: 0.059 µM

SMILES: COc1ccc(C2C(c3ccc(F)cc3)C(=O)N2c2cc(OC)c(OC)c(OC)c2)cc1 (centres unmarked) [Compound 11, 3-(4-Fluoro-phenyl)-4-(4-methoxy-phenyl)-1-(3,4,5-trimethoxy-phenyl)-azetidin-2-one]
- melting point: 120 °C
- IC50 [1]: 0.042 µM

- IC50 [1]: 0.065 µM
SMILES: COc1ccc(C2C(c3ccccc3)C(=O)N2c2cc(OC)c(OC)c(OC)c2)cc1N (centres unmarked) [Compound 13, 4-(3-Amino-4-methoxy-phenyl)-3-phenyl-1-(3,4,5-trimethoxy-phenyl)-azetidin-2-one]

- melting point: 177 °C
- IC50 [1]: 0.039 µM
SMILES: COc1ccc(C2C(c3ccc(O)cc3)C(=O)N2c2cc(OC)c(OC)c(OC)c2)cc1N (centres unmarked) [Compound 15, 4-(3-Amino-4-methoxy-phenyl)-3-(4-hydroxy-phenyl)-1-(3,4,5-trimethoxy-phenyl)-azetidin-2-one]

- IC50 [1]: 0.065 µM
SMILES: COc1ccc(C2C(c3ccc(F)cc3)C(=O)N2c2cc(OC)c(OC)c(OC)c2)cc1O (centres unmarked) [Compound 16, 3-(4-Fluoro-phenyl)-4-(3-hydroxy-4-methoxy-phenyl)-1-(3,4,5-trimethoxy-phenyl)-azetidin-2-one]

SMILES: COc1ccc(C2C(c3ccc(F)cc3)C(=O)N2c2cc(OC)c(OC)c(OC)c2)cc1N (centres unmarked) [Compound 17, 4-(3-Amino-4-methoxy-phenyl)-3-(4-fluoro-phenyl)-1-(3,4,5-trimethoxy-phenyl)-azetidin-2-one]
- IC50 [1]: 0.055 µM

- melting point: 113 to 114 °C
- IC50 [1]: 0.007 µM
SMILES: COc1ccc(C2C(c3cccs3)C(=O)N2c2cc(OC)c(OC)c(OC)c2)cc1O (centres unmarked) [Compound 18, 4-(3-Hydroxy-4-methoxy-phenyl)-3-thiophen-2-yl-1-(3,4,5-trimethoxy-phenyl)-azetidin-2-one]

SMILES: COc1ccc(C2C(c3cccs3)C(=O)N2c2cc(OC)c(OC)c(OC)c2)cc1N (centres unmarked) [Compound 19, 4-(3-Amino-4-methoxy-phenyl)-3-thiophen-2-yl-1-(3,4,5-trimethoxy-phenyl)-azetidin-2-one]
- IC50 [1]: 0.041 µM

SMILES: COc1ccc(C2C(c3ccsc3)C(=O)N2c2cc(OC)c(OC)c(OC)c2)cc1O (centres unmarked) [Compound 20, 4-(3-Hydroxy-4-methoxy-phenyl)-3-thiophen-3-yl-1-(3,4,5-trimethoxy-phenyl)-azetidin-2-one]
- melting point: 151 to 152 °C
- IC50 [1]: 0.01 µM

- melting point: 130 °C
- IC50 [1]: 0.06 µM
SMILES: COc1ccc(C2C(c3ccsc3)C(=O)N2c2cc(OC)c(OC)c(OC)c2)cc1 (centres unmarked) [Compound 21, 4-(4-Methoxy-phenyl)-3-thiophen-3-yl-1-(3,4,5-trimethoxy-phenyl)-azetidin-2-one]

- IC50 [1]: 0.0689 µM
SMILES: COc1ccc(C2C(c3cccc(O)c3)C(=O)N2c2cc(OC)c(OC)c(OC)c2)cc1 (centres unmarked) [Compound 22, 3-(3-Hydroxy-phenyl)-4-(4-methoxy-phenyl)-1-(3,4,5-trimethoxy-phenyl)-azetidin-2-one]

- IC50 [1]: 0.004 µM
SMILES: COc1ccc(C2C(c3ccc(N)cc3)C(=O)N2c2cc(OC)c(OC)c(OC)c2)cc1O (centres unmarked) [Compound 23, 3-(4-Amino-phenyl)-4-(3-hydroxy-4-methoxy-phenyl)-1-(3,4,5-trimethoxy-phenyl)-azetidin-2-one]

SMILES: COc1ccc(C2C(c3ccc(N)cc3)C(=O)N2c2cc(OC)c(OC)c(OC)c2)cc1N (centres unmarked) [Compound 24, 4-(3-Amino-4-methoxy-phenyl)-3-(4-amino-phenyl)-1-(3,4,5-trimethoxy-phenyl)-azetidin-2-one]
- IC50 [1]: 0.03 µM

- IC50 [1]: 0.039 µM
SMILES: COc1ccc(C2CC(=O)N2c2cc(OC)c(OC)c(OC)c2)cc1 (centres unmarked) [Compound 26, 4-(4-Methoxyphenyl)-1-(3,4,5-trimethoxyphenyl)-azetidin-2-one]

- IC50 [1]: 0.047 µM
SMILES: COc1ccc(C2C(C)C(=O)N2c2cc(OC)c(OC)c(OC)c2)cc1 (centres unmarked) [Compound 27, 4-(4-Methoxyphenyl)-3-methyl-1-(3,4,5-trimethoxyphenyl)-azetidin-2-one]

SMILES: COc1ccc(C2C(C)C(=O)N2c2cc(OC)c(OC)c(OC)c2)cc1O (centres unmarked) [Compound 28, 4-(3-Hydroxy-4-methoxyphenyl)-3-methyl-1-(3,4,5-trimethoxyphenyl)-azetidin-2-one]
- IC50 [1]: 0.01 µM

SMILES: COc1ccc([C@H]2[C@H](c3ccccc3)C(=O)N2c2cc(OC)c(OC)c(OC)c2)cc1OP(=O)(O)O [Compound 29]
- compound remaining after 24 hours ([2]; pH 4): 100%
- compound remaining after 24 hours ([2]; pH 7.4): 100%
- compound remaining after 24 hours ([2]; pH 9): 100%

- compound remaining after 24 hours ([2]; pH 4): 60%
- compound remaining after 24 hours ([2]; pH 7.4): 42%
- compound remaining after 24 hours ([2]; pH 9): 54%
SMILES: COc1ccc(C2[C@H](c3ccccc3)C(=O)N2c2cc(OC)c(OC)c(OC)c2)cc1OC(C)=O (some centres unmarked) [Compound 30]

- compound remaining after 24 hours ([2]; pH 4): 61%
- compound remaining after 24 hours ([2]; pH 7.4): 35%
- compound remaining after 24 hours ([2]; pH 9): 76%
SMILES: COc1ccc(C2[C@H](c3ccccc3)C(=O)N2c2cc(OC)c(OC)c(OC)c2)cc1OC(=O)c1ccccc1 (some centres unmarked) [Compound 31]

- IC50 (A2780-ADR (PGP)): > 10 µM
- IC50 (HL-60-MDR(PGP)): > 10 µM
SMILES: CC(=O)O[C@H]1C(=O)[C@@]2(C)[C@H]([C@H](OC(=O)c3ccccc3)[C@]3(O)C[C@H](OC(=O)[C@H](O)[C@@H](NC(=O)c4ccccc4)c4ccccc4)C(C)=C1C3(C)C)[C@]1(OC(C)=O)CO[C@@H]1C[C@@H]2O [Paclitaxel, paclitaxel]
- IC50 (HL-60 parental): 0.0048 µM
- IC50 (A2780-parental): 0.0042 µM
- RF (A2780-ADR (PGP)): >2,381
- RF (HL-60-MDR(PGP)): >2,083

- IC50 (A2780-ADR (PGP)): 1.6 µM
- IC50 (HL-60-MDR(PGP)): 0.61 µM
SMILES: CC[C@]1(O)C[C@H]2CN(CCc3c([nH]c4ccccc34)[C@@](C(=O)OC)(c3cc4c(cc3OC)N(C=O)[C@H]3[C@@](O)(C(=O)OC)[C@H](OC(C)=O)[C@]5(CC)C=CCN6CC[C@]43[C@@H]65)C2)C1 [Vincristine, vincristine]
- IC50 (HL-60 parental): 0.0022 µM
- IC50 (A2780-parental): 0.0031 µM
- RF (A2780-ADR (PGP)): 516
- RF (HL-60-MDR(PGP)): 277.3
